Laboratory results taken from patent US12268682B2, “Anticancer drug FL118 formulation for treatment of human cancer” (CANGET BIOTEKPHARMA, LLC, priority 2019, dated 2025).

How the values were obtained:
cancer stem cells (CSCs) = settings: cited from earlier work
T-cells and NK-cells = assay: Toxicity of FL118 on immune effector cells; assay type: cell-based, human; settings: up to 100 nM
Procedure: Toxicity of FL118 on immune effector cells: Cryopreserved BMMNCs derived from MM patients or plasma cell leukemia (PCL) patients, were treated with various concentrations of FL118. After 24 hours, viable CD45^+ CD3^+ T-cells and CD45^+ CD56^+ CD14^− CD3^− NK-cells were enumerated by multiparameter flow cytometry. Additionally, healthy-donor peripheral blood mononuclear cells (PBMCs) were seeded in 96-well flat-bottom plates at 1×10^5 cells/well, stimulated with PMA (25 ng/mL) and ionomycin (500 ng/mL) (both Santa Cruz Biotechnology) for 24 hours, and subsequently treated with FL118 for 48 hours before determining activated CD45^+ CD3^+ CD56^− CD25^+ T-cells by flow cytometry. The percentage cell survival was then calculated using the following formula: % immune cell survival=absolute number of viable immune cells in treated wells/mean absolute number of viable immune cells in untreated wells×100%.

[1] = Storage and heat stability of FL118; assay type: physicochemical
[2] = test system: survivin, Mcl-1, XIAP and cIAP2; settings: cited from earlier work
[3] = test system: cisplatin-resistant pancreatic cancer cells; settings: cited from earlier work
[4] = X-ray powder diffractometer (XRPD) crystal versus amorphous status; assay type: physicochemical
Procedure: Crystal versus amorphous status analyses of FL118 versus the formulated FL118 product using X-ray powder diffractometer: The crystal or amorphous status of each formulated FL118-a type of CD complex powder is determined using X-ray powder diffractometer (XRPD). Specifically, about 5 mg samples of each formulated FL118-a type of CD complex powder are spread onto the center of Si-substrate (samples area will be 1 cm in diameter) for XRPD testing. Laboratory XRPD patterns for samples will be collected at 25° C. The diffraction data will be collected over the angular range of 2θ=3°-40° with a step size of 2θ=0.02° and accounting time of 0.12 s/step.

Survivin = assay: Intracellular staining of Survivin in patient MM cells; assay type: cell-based, human; settings: FL118-susceptible RR patients, 16 h
Procedure: Intracellular staining Survivin and Mcl-1: Mcl-1 and survivin expression levels in MM cells of BMMNC patient samples were determined by intracellular staining followed by flow cytometry. Untreated or FL118 treated (16 h) patient samples were washed twice with cold PBS. Cells were blocked with human immunoglobulin and stained for CD38 (BD biosciences), CD138 (Bio-Connect) and live/dead cell marker. In addition, LUC- and Green fluorescence protein (GFP)-transduced UM9 MM-cells were incubated alone or a monolayer of 1×10^6 BMMSCs in a 100 mm dish for 24 or 48 hours. Non-adherent cells were harvested by taking culture medium from plates and washing plates with PBS by gentle pipetting. Adherent cells were harvested using Stem-Pro Accutase. Both adherent and non-adherent cells were blocked with human immunoglobulin and stained for CD105 (Synobiotechnology) and live/dead marker. The stained patient cells and UM9 cells were then fixated in 4% formaldehyde for 15 minutes at room temperature. After fixation, the cells were placed in ice cold 90% methanol for 30 minutes on ice for permeabilization and subsequently stored at −20° C. […] Expression levels were analyzed in viable CD38^+ CD138^+ patient MM cells and GFP^+ CD105^− UM9-cells using flow cytometry.

cancer cell growth = settings: cited from earlier work
primary MM cells = assay: Flow cytometry-based ex vivo assay using BMMNCs from MM patients; assay type: cell-based, human
Procedure: Flow cytometry-based […] assays using BMMNCs: Cryopreserved BMMNCs derived from MM patients were incubated on a monolayer of 2×10^4 BMMSCs for 16 till 24 hours and subsequently treated with FL118 ([…]) and/or, melphalan (5-10 μM/L), bortezomib (2-3 nmol/L) for 48 hours. Concerning immunotherapy, treatment included FL118 (10 or 100 nM) and/or daratumumab, or CAR T-cells for 24 hours. BMMNC samples contained sufficient numbers of functional effector cells to induce antibody-mediated plasma cell lysis. At the end of treatment, after addition of flow-count fluorospheres (Beckman Coulter), adherent cells were detached with Accutase, blocked with human immunoglobulin (100 μg/mL, Sanquin), and stained for CD38, CD138, CD45 (Beckman Coulter) and live/dead cell marker (LIVE/DEAD Fixable Near-111; Life Technologies) to determine absolute numbers of viable MM cells using flow cytometry. The percentage lysis was then calculated using the following formula: % lysis cells=1−absolute number of viable CD138^+ CD38^+ CD45^dim MM cells in treated wells/mean absolute number of viable CD138^+ CD38^+ CD45^dim MM cells in untreated wells×100%.

[5] = primary BMMNC samples, 48 hours

Structure (SMILES): CC[C@@]1(O)C(=O)OCc2c1cc1n(c2=O)Cc2cc3cc4c(cc3nc2-1)OCO4 [FL118]
- expression of CSC markers (ABCG2, ALDH1A1, Oct4) (cancer stem cells (CSCs)): downregulates
- invasive ability of CSCs (cancer stem cells (CSCs)): effectively decreases
- toxic effects on resting T-cells or NK-cells (T-cells and NK-cells; BMMNC samples from MM or PCL patients, 24 hours): no toxic effects
- toxic effects on PMA-activated CD25+ T-cells (T-cells and NK-cells; healthy individuals, 48 hours): no toxic effects
- stability at high temperature ([1]; 60-80° C., spray-dry process, at least a period of time): without any issues
- storage stability ([1]; before and/or after formulation, room temperature or 4° C.): highly stable
- inhibition of expression of survivin, Mcl-1, XIAP and cIAP2 [2]: selectively inhibits
- activity on cisplatin-resistant pancreatic cancer cells [3]: preferentially targets and kills
- spheroid formation of pancreatic cancer stem cells [3]: inhibits
- crystal versus amorphous status [4]: crystal
- levels of Survivin expression (Survivin): significantly reduced
- concentration range for inhibition of cancer cell growth (cancer cell growth): high pM to low nM range
- combination of FL118 with CAR T-cells, observed versus expected lysis (primary MM cells; 10 nM FL118, BLISS model): synergistic fashion
- patient MM cell lysis by CAR T-cells in the presence of BMMSCs (primary MM cells; 10 nM FL118, E:T ratio 1:1, 24 hours): significantly enhanced
- anti-MM activity of FL118 alone (primary MM cells; 10 nM, 24 hours, patient-derived MM cells): no/minimal anti-MM activity
- BMMSC-mediated protection against daratumumab-induced MM cell lysis (primary MM cells; 100 nM FL118, 10 μg/mL daratumumab, 24 hours): abrogated
- efficacy in RR patient samples compared to ND patient samples (primary MM cells; 100 nmol/L, 24 hours, 12 RR and 15 ND): significantly more effective
- FL118-induced MM cell lysis (primary MM cells; 100 nmol/L, 24 hours, in 15 of 27 patient samples): ≥ 20%
- interaction between FL118 and daratumumab in the presence of BMMSCs (primary MM cells; observed versus expected lysis): synergistic
- combination effect with bortezomib (Bliss model) (primary MM cells; [5]): additive effects
- combination effect with melphalan (Bliss model) (primary MM cells; [5]): synergistic effects
